This note sets out measurements from article PMC9377007, “An Unexpected Deuterium-Induced Metabolic Switch in Doxophylline” (ACS Medicinal Chemistry Letters, 2022).

One data set has as its system BLM-induced lung injury. Put plainly: Bleomycin (BLM)-induced lung injury model. Particulars: BLM-treated mice, 80 mg/kg orally daily; for fibrosis: collagen fibers, Masson's Trichrome and Picrosirius red staining, semiquantitative: versus vehicle group. The data set is classed as in vivo. How it is done:
With regard to the BLM-induced lung injury, we treated mice orally with 80 mg/kg doxophylline, d4-doxophylline, or d7-doxophylline daily (Figure 6a). […] Finally, to investigate the fibrosis, we performed a semiquantitative analysis on the Masson’s Trichrome- and Picrosirius red-stained sections in order to evaluate the presence and the packing of collagen fibers. […] Furthermore, an interesting association of the inflammatory infiltrate and stromal remodeling was observed. Indeed, the decrease in the interstitial inflammatory state led to a reduction of fibrosis in the doxophylline- and d7-treated groups, as can be observed in the respective representative images.
Figure 6 Model of pulmonary fibrosis induced by bleomycin. Doxophylline and d7-doxophylline attenuate BLM-induced structural damage and lung fibrosis in mice. (a) Representative scheme of the BLM-induced lung injury model. (b) Total BAL cellularity of sham mice (not treated) and bleomycin-treated mice (treated or not with 80 mg/kg doxophylline, d4-doxophylline, or d7-doxophylline). Results are reported as mean ± SEM of three independent experiments. (c) Wet/dry lung weight ratio of sham and bleomycin-treated mice (treated or not with 80 mg/kg doxophylline, d4-doxophylline, or d7-doxophylline). Results are reported as mean ± SEM of three independent experiments. (d) MPO activity in lungs of sham and bleomycin-treated mice (treated or not with 80 mg/kg doxophylline, d4-doxophylline and d7-doxophylline). Results are reported as mean ± SEM of three independent experiments. (e) Representative images of H&E staining of sham and bleomycin-treated mice (treated or not with 80 mg/kg doxophylline, d4-doxophylline, or d7-doxophylline). (f, g) Representative images of (f) Masson’s trichrome staining and (g) Picrorius red staining of sham and bleomycin-treated mice (treated or not with 80 mg/kg doxophylline, d4-doxophylline, or d7-doxophylline). p values: *, p < 0.05; **, p < 0.01; ***, p < 0.001; ****, p < 0.0001.
8-week-old male C57Bl/6 mice (Envigo, Indianapolis, USA) weighing between 25 and 30 g were used. Animal care was in compliance with Italian regulations on protection of animals used for experimental purposes and were authorized by the Ministry of Health. We administered BLM (0.02U/50µl) by mouse pharyngeal aspiration, under isoflurane ana esthesia.2 Doxophylline, d4 or d7 ([…], solubilized in 0.9% NaCl solution) or saline treatment (vehicle) was given orally (gavage administration) 1 h before BLM treatment, and then once a day thereafter. Mice were euthanized on day 21 following BLM treatment.
BAL was performed through a tracheal cannula using 1 mL aliquots of ice -cold Ca2+/Mg2+-free phosphate-buffered medium (145 mM NaCl, 5 mM KCl, 1.9 mM NaH 2PO4, 9.35 mM Na2HPO4, and 5.5 mM dextrose, pH 7.4). BAL samples were centrifuged at 500× g for 5 min at 4 °C, and cell pellets were washed an d resuspended in phosphate -buffered medium. BAL cells were enumerated by counting on a Hemocytometer the presence of the trypan blue stain.
Myeloperoxidase (MPO) activity, a marker of polymorphonuclear leukocyte (PMN) infiltration, was determined using MPO Colorimetric Activity Assay Kit (Merck Life Science), according to the manufacturer’s protocol. MPO activity was described as the amount of enzyme degrading 1 μM of peroxide/minute at 37°C and was expressed in U/mg of wet tissue.
Evaluation of fluid content in lungs.
The wet lung weight was calculated after harvesting the lungs, without any extraneous tissue. The lung s were subjected for 72 hours at 100°C and the dry weight was measured. Water content was calculated b y subtracting dry weight from wet weight.
Lungs were fixed with 10% buffered formalin at room temperature for 48h, dehydrated in 70% ethanol, and embedded in paraffin with Diapath automatic processor. Sections (4 μm thick) were stained with hae matoxylin and eosin (H&E) according to standard protocol and samples were mounted in Eukitt (Bio -Optica). To […]

Data set [1] can be described thus: Comparative pharmacokinetic study, single-dose administration in minipigs. Particulars: male, Göttingen, minipig, plasma. Type of data set: in vivo. The protocol:
A comparative pharmacokinetic study was then performed by evaluating the plasma concentration profiles of doxophylline and its deuterated analogues after intravenous and oral single-dose administration in mice and minipigs. […] Since the deuterium kinetic isotope effect is often affected by interspecies variability,[28] a PK study was also performed in minipigs. […] A total of 96 CD1 male mice, approximately 6 weeks old and with a body weight of approximately 30 g, were purchased from Envigo RMS srl, (San Pietro al Natisone, UD, Italy). Four males Göttingen minipigs approximately 4-5 months old and weighing 9-11 Kg were purchased from Ellegaard Göttingen Minipigs (Dalmose, Denmark). Protocol for drug administration and blood sampling. Mice. Blood samples were collected under light isoflurane anaesthesia from the sublingual vein at the following time points (n=3): pre-dose and 5, 15, 30 minutes, 1, 2, 4, 8 and 24 hours after i.v. dosing (20 mg/Kg, dose volume 5 mL/Kg) and pre-dose and 15, 30 minutes, 1, 2, 4, 8 and 24 hours after oral gavage dosing (80 mg/Kg, dose volume 5 mL/Kg). Each animal was sampled on each day at a maximum of two alternating time points. Samples were transferred into tubes containing K3EDTA as anticoagulant, centrifuged, and stored at -80 °C. Minipig. Blood samples were collected from the jugular vein at the following time points (n=4): pre-dose and 5, 15, 30 minutes, 1, 2, 4, 8 and 24 hours after i.v. dosing (5 mg/Kg, dose volume 1 mL/Kg) and pre-dose and 15, 30 minutes, 1, 2, 4, 8 and 24 hours after oral gavage dosing (20 mg/Kg, dose volume 4 mL/Kg). Samples were transferred into tubes containing K3EDTA as anticoagulant, centrifuged, and stored at -80 °C. Sample preparation for HPLC-MS analysis. A volume of 50 µL of caffeine solution (1 mg/L in water-methanol 1:1) were added to plasma sample aliquots (50 µL); after the addition of the precipitant solution (100 µL of 10% ice-cold trichloroacetic acid in water), samples were centrifuged at 13,000 rpm for ten minutes and the supernatant injected onto the HPLC system (see supporting information for chromatographic conditions). If the levels of analytes were over range, plasma samples were preventively diluted with blank plasma. Data analysis. Quantification of doxophylline and its deuterated analogues d4 and d7 as well as their main metabolites, 7- theophylline acetic acid (T-COOH), 7-hydroxyethyl theophylline (Eto) and theophylline, was performed by using the calibration curves obtained with the corresponding working standards of the analytes and using caffeine as internal standard. The pharmacokinetic parameters for doxophylline and its deuterated analogues were calculated by plotting the plasma concentration curves versus time obtained from the average values of three animals, using PK Solver 2.0.1 S7

In the case of `[2H]C1([2H])OC(Cn2cnc3c2c(=O)n(C)c(=O)n3C)OC1([2H])[2H]` [d4-doxophylline], in the data set with BLM-induced lung injury, the “accumulation of immune cells in bronchoalveolar lavage (total BAL cellularity)” value (shortened to “accumulation of immune cells”) was “of lesser extent and lacked statistical significance”; the “histological examination by H&E staining” value was “decrease in the inflammatory interstitial infiltrate”; the “fibrosis: collagen fibers, Masson's Trichrome and Picrosirius red staining, semiquantitative” value (from here on “fibrosis: collagen fibers”) is “slight tendency toward reduction in thickness and packing of collagen fibers”. Moreover, in data set [1] (intravenous, 5 mg/kg), the AUC(0-t) is 49.2 µg·h/mL, the Cmax amounted to 7420 ng/mL, the clearance was 1.67 mL/min/kg and the half-life is 6.2 h. In data set [1] (oral, 20 mg/kg), this compound gave an AUC(0-t) of 236 µg·h/mL, a CL/F of 1.17 mL/min/kg, a peak concentration (Cmax) of 15800 ng/mL and a half-life of 10.8 h.
Turning to `[2H]C1([2H])OC([2H])(C([2H])([2H])n2cnc3c2c(=O)n(C)c(=O)n3C)OC1([2H])[2H]` [d7-doxophylline], in the data set on BLM-induced lung injury, the “MPO activity in lungs” value is “decreased”; the “accumulation of immune cells” value is reported as “significantly reverted”; the “histological examination by H&E staining” value is reported as “decrease in the inflammatory interstitial infiltrate”; the “ratio between wet and dry lung” value is reported as “decreased liquid accumulation”. Moreover, the “fibrosis: collagen fibers” value in the data set with BLM-induced lung injury was “slight tendency toward reduction in thickness and packing of collagen fibers”. In data set [1] (intravenous, 5 mg/kg), this compound showed an AUC(0-t) of 47 µg·h/mL, a Cmax of 8260 ng/mL, a clearance of 1.67 mL/min/kg and a half-life of 6.5 h. Besides, in data set [1] (oral, 20 mg/kg), the AUC(0-t) was found to be 222 µg·h/mL, the CL/F is 1.17 mL/min/kg, the peak concentration (Cmax) worked out at 13000 ng/mL and the half-life was 12.6 h.
Turning to `Cn1c(=O)c2c(ncn2CC2OCCO2)n(C)c1=O` [doxophylline], in the data set on BLM-induced lung injury, the “MPO activity in lungs” value was “decreased”; the “accumulation of immune cells” value is “significantly reverted”; the “histological examination by H&E staining” value is “decrease in the inflammatory interstitial infiltrate”; the “ratio between wet and dry lung” value is given as “decreased liquid accumulation”. Besides, the “fibrosis: collagen fibers” value in the data set on BLM-induced lung injury is “slight tendency toward reduction in thickness and packing of collagen fibers”. In addition, in data set [1] (intravenous, 5 mg/kg), the AUC(0-t) stood at 47.7 µg·h/mL, the Cmax was 7500 ng/mL, the clearance was 1.67 mL/min/kg and the half-life was 6.2 h. In data set [1] (oral, 20 mg/kg), this compound had an AUC(0-t) of 217 µg·h/mL, a CL/F of 1.17 mL/min/kg, a maximum concentration (Cmax) of 14000 ng/mL and a half-life of 11 h.
